One series concerns the target T1, human KCC2 (Homo sapiens, UniProt Q9H2X9).
T1 construct: expressed in transfected cells; host or cells: HEK293
T1 sequence (Q9H2X9 1-1139): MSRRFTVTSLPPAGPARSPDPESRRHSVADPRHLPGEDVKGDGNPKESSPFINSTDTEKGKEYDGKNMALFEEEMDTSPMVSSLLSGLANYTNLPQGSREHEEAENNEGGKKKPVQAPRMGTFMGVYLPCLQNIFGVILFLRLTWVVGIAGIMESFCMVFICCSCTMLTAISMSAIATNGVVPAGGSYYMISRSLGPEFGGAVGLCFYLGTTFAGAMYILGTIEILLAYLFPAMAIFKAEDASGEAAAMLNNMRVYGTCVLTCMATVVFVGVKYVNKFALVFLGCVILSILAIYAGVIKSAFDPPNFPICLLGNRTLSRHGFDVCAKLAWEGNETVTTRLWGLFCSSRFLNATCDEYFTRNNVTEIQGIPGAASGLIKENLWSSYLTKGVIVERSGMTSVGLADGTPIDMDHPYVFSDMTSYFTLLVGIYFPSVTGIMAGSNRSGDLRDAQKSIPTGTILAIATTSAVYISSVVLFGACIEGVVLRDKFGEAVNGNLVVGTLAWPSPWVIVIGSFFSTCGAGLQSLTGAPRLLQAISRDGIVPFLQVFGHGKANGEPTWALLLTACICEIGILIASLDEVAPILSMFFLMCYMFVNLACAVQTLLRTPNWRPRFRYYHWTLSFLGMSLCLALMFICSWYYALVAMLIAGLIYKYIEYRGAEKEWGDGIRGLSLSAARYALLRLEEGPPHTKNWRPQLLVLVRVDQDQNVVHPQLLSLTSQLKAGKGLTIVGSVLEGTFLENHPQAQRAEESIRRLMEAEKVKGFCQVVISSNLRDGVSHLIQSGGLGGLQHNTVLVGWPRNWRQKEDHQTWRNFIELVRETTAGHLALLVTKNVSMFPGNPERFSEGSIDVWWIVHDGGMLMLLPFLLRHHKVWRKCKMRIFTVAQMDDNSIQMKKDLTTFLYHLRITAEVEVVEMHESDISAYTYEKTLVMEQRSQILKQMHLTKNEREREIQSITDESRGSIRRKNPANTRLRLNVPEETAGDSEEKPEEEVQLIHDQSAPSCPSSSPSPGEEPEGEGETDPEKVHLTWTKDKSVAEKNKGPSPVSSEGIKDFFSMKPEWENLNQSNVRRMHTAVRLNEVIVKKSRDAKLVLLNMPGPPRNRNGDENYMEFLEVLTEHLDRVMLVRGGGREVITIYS
Put plainly: Thallium flux assay in HEK293 cells transiently transfected with human KCC2. It is filed as cell-based. To be noted: HEK293 cells over-expressing human KCC2. As for the experimental part:
Phenotype-based screens, as described herein, are high-content and make use of complex behaviors to identify novel modulators, which may function through various mechanisms. Thus, hits identified in the suppressor screens described herein may or may not act directly on KCC2. To test whether the three hit compounds directly alter the activity of the transporter, thallium flux assays were performed in HEK293 cells transiently transfected with human KCC2 in order to measure the influx rate of KCC2 activity (see, e.g., Appendix B).

The next series concerns zebrafish larvae. It is filed as in vivo. From the text: In an effort to determine how pharmacological inhibition of KCC2 affects zebrafish behaviors, 7 days post-fertilization (dpf) zebrafish larvae can be treated with two analogs of the selective KCC2 inhibitor, VU0463271 and VU0240551, and their behavioral responses in a battery of behavioral assays can be assessed. These behavioral assays can include a series of visual and acoustic stimuli presented to larval zebrafish in various contexts and combinations to elicit robust and reproducible patterns of activity. For example, behavioral assays can include two acoustic-stimulus-response (ASR1 and ASR2) assays, six visual-stimulus-response (VSR1-VSR6) assays, and three assays that combine acoustic and visual stimulus responses (AVSR1-AVSR3). Together, such a battery of behavioral assays use six stimuli, including red light (600 nm), blue light (420 nm), violet light (405 nm), green light (525 nm), low-intensity sound (60 dB) and high-intensity sound (70 dB). Behavioral responses of the larval zebrafish can be measured by a motion index (MI) that quantifies the motor activity of at least about 8 zebrafish larvae in each well of a 96-well plate.
Referring to FIGS. 1A-1B, zebrafish behavioral profiles can include a battery of individual behavioral assays labeled ASR1, AVSR1, ASR2, VSR1, VSR2, VSR3, VSR4, AVSR2, VSR5, AVSR3, and VSR6, as described herein. These behavioral assays can be combined to form a Motion Index (MI), which is a quantification of the motor activity of at least about 8 zebrafish larvae in each well of a 96-well plate. As shown in the representative images of FIGS. 1A-1B, zebrafish larvae were treated with DMSO (control), VU0463271 (FIG. 1A), or pentylentetrazol or PTZ (FIG. 1B).
Treatment with increasing doses of VU0463271 induced a unique and dose-dependent profile of behavioral responses, detectable at 2.5 μM and 5 μM. […] This relatively low concentration of VU0463271 elicited a reproducible behavioral profile with altered sensitivity of the fish larvae to specific combinations of stimuli. […] The increased MI in the AVSR1 and AVSR3 assays due to VU0463271 treatment reflects a seizure-like hyperexcitability in the larval fish.
Additionally, seizures have been induced in 7 dpf zebrafish larvae using pentylentetrazol (PTZ) treatment, and motor and electroencephalographic (EEG) responses were consistent with seizure phenotypes.

Where “and” joins values, the source holds several entries; their conditions need not be identical. Identical values can stand only once.

`CCN1C(=O)C=CC1=O` [N-ethylmaleimide]: on human KCC2, the “rate of 10 mM [K+]o-induced thallium influx (KCC2-mediated flux)” value is “significantly increased”.
On to `Cc1csc(N(C(=O)CSc2ccc(-c3ccccc3)nn2)C2CC2)n1` [VU0463271, N-Cyclopropyl-N-(4-methyl-2-thiazolyl)-2-[(6-phenyl-3-pyridazinyl)thio]acetamide], for which the “rate of 10 mM [K+]o-induced thallium influx (KCC2-mediated flux)” value on human KCC2 is given as “significantly reduced”. Also, the “MI in the ASR2 and VSR assays” value with zebrafish larvae (2.5 μM) is “reduced”. Moreover, the “behavioral responses in the AVSR1 and AVSR3 assays” value in the series with zebrafish larvae (2.5 μM, seizure-like hyperexcitability) is reported as “increased”. The “effect on MI along the assay battery” value in the series with zebrafish larvae (10 μM, very low MI) is recorded as “sedative effect”. For the same molecule, in the series with zebrafish larvae (7 dpf larvae), the “concentration at which the dose-dependent profile of behavioral responses was detectable” value is 2.5 µM and 5 µM.

(Values after patent publication US20180161310A1, “COMPOUNDS AND METHODS FOR THE TREATMENT OF NEUROLOGICAL DISORDERS” (Teleos Therapeutics, LLC, priority 2016, published 2018).)
